Reference: ChEMBL document CHEMBL4033773, “Improving Metabolic Stability with Deuterium: The Discovery of BMT-052, a Pan-genotypic HCV NS5B Polymerase Inhibitor” (ACS Med Chem Lett, 2017)
Blank lines part the entries; values can stand above or below the molecule they belong to.

Assays:
[1] = biological target: Cytochrome P450 3A4 (Homo sapiens, UniProt P08684); assay: Competitive inhibition of CYP3A4 in human liver microsomes in presence of NADPH by LC-MS/MS analysis; format: ADME
[2] = tested on: Hepatitis C virus; assay: Antiviral activity against HCV genotype 1a infected in human HuH7 cells assessed as reduction in viral RNA replication after 3 days in presence of human serum by Dual-Glo luciferase reporter gene assay; format: functional, cell-based, Hepacivirus hominis; conditions: subtype 1a, Huh-7, 72 h
[3] = tested on: Hepatitis C virus; assay: Antiviral activity against HCV genotype 1a infected in human HuH7 cells assessed as reduction in viral RNA replication after 3 days by Dual-Glo luciferase reporter gene assay; format: functional, cell-based, Hepacivirus hominis; conditions: subtype 1a, Huh-7, 72 h
[4] = Distribution constant, log D of compound at pH 6.5; format: physicochemical; conditions: buffer
[5] = Clearance in cynomolgus monkey at 1 mg/kg, iv or 3 mg/kg, po; format: ADME, organism-based, Macaca fascicularis; conditions: in vivo
[6] = Volume of distribution at steady state in dog at 1 mg/kg, iv or 3 mg/kg, po; format: ADME, organism-based, Canis lupus familiaris; conditions: in vivo, read-out: Vdss
[7] = Oral bioavailability in cynomolgus monkey at […]; format: ADME, organism-based, Macaca fascicularis; conditions: in vivo
[8] = Volume of distribution at steady state in cynomolgus monkey at 1 mg/kg, iv or 3 mg/kg, po; format: ADME, organism-based, Macaca fascicularis; conditions: in vivo, read-out: Vdss
[9] = Clearance in rat at 2 mg/kg, iv or 6 mg/kg, po; format: ADME, organism-based; conditions: in vivo
[10] = Oral bioavailability in rat at 6 mg/kg; format: ADME, organism-based; conditions: in vivo
[11] = AUC in rat at 6 mg/kg, po; format: ADME, organism-based; conditions: in vivo
[12] = AUC in cynomolgus monkey at 3 mg/kg, po; format: ADME, organism-based, Macaca fascicularis; conditions: in vivo
[13] = Oral bioavailability in dog at 6 mg/kg; format: ADME, organism-based, Canis lupus familiaris; conditions: in vivo
[14] = Clearance in dog at 1 mg/kg, iv or 3 mg/kg, po; format: ADME, organism-based, Canis lupus familiaris; conditions: in vivo
[15] = Volume of distribution at steady state in rat at 2 mg/kg, iv or 6 mg/kg, po; format: ADME, organism-based; conditions: in vivo, read-out: Vdss
[16] = AUC in dog at 3 mg/kg, po; format: ADME, organism-based, Canis lupus familiaris; conditions: in vivo

Cytochrome P450 3A4, sequence (P08684 whole entry): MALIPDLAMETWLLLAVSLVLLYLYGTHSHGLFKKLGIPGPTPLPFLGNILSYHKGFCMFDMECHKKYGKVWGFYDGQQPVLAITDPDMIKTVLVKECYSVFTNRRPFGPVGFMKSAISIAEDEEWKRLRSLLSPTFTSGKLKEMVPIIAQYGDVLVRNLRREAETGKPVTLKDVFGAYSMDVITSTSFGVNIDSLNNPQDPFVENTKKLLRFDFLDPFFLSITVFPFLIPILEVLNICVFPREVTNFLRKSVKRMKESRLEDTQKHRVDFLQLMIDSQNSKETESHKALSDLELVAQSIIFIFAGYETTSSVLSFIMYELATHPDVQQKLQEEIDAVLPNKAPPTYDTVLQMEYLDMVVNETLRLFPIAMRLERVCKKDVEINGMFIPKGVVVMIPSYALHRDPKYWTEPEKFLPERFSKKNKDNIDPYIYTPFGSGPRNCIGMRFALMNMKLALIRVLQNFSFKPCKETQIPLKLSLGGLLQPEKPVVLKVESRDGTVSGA

IC50 [1]: 440 nM
Structure (SMILES): CNC(=O)c1c(-c2ccc(F)cc2)oc2nc(CCC(F)(F)F)c(-c3cc(C(=O)NC(C)(C)c4ncon4)c(=O)n(C)c3)cc12

EC50 [2]: 146 nM
EC50 [3]: 13 nM
Structure (SMILES): [2H]C([2H])([2H])C(NC(=O)c1cccc(-c2cc3c(C(=O)NC)c(-c4ccc(F)cc4)oc3nc2CCC(F)(F)F)c1)(c1ncon1)C([2H])([2H])[2H]

logD [4]: 4.43
Structure (SMILES): CNC(=O)c1c(-c2ccc(F)cc2)oc2nc(CCC(F)(F)F)c(-c3cccc(C(=O)NC(C)(C)c4ncon4)c3)cc12

clearance [5]: 4.7 mL/min/kg
Vd [6]: 2.1 L/kg
bioavailability [7]: 85%
Vd [8]: 2.3 L/kg
clearance [9]: 1.6 mL/min/kg
bioavailability [10]: 100%
AUC [11]: 95 µM·h
AUC [12]: 16 µM·h
bioavailability [13]: 90%
logD [4]: 3.73
clearance [14]: 1 mL/min/kg
Vd [15]: 11 L/kg
AUC [16]: 125 µM·h
Structure (SMILES): [2H]C([2H])([2H])Oc1ncc(-c2cc3c(C(=O)NC)c(-c4ccc(F)cc4)oc3nc2CCC(F)(F)F)cc1C(=O)NC(c1ncon1)(C([2H])([2H])[2H])C([2H])([2H])[2H]
